Data from patent US20250275964A1, “METHODS OF INHIBITING LIVER-TYPE GLUTAMINASE, GLS2” (CORNELL UNIVERSITY, priority 2019, published 2025).

Key:
[1] = tested on: glutaminase activity in mitochondria isolated from breast cancer cell lines; test: Mitochondrial glutaminase activity assay; assay type: biochemical, human
From the text: Breast cancer cells were fractionated into cytosolic, mitochondrial, and nuclear components via partial lysis and centrifugation using the Qproteome Mitochondria Isolation Kit (Qiagen). For all samples, a portion of the starting material (i.e. whole cells) was retained for comparison with the isolated fractions. When cellular fractions were to be analyzed only by western blot, a single 10 cm dish of exponentially growing cells was used. When mitochondria were isolated for glutaminase assays, two 15 cm dishes of exponentially growing cells were used.
A two-reaction protocol was used to measure mitochondrial glutaminase activity. […] The reaction was then quenched by addition of 10 μl of 2.4 M HCl, and samples placed on ice. Next, 20 μl of quenched Reaction Mix 1 was added to 200 μl of Reaction Mix 2 (1 unit bovine liver glutamate dehydrogenase (Sigma-Aldrich), 80 mM Tri-HCl pH 9.4, 200 mM hydrazine, 0.25 mM ADP, 2 mM NAD) and samples were incubated for 1 hour at room temperature. The absorbance at 340 nm was then measured against a matched sample in which heat-inactivated mitochondria (immersed in boiling water for 5 minutes) were used. A standard curve was prepared using given concentrations of glutamate in Reaction Mix 2, allowing the amount of glutamate produced in Reaction 1 to be determined.

[2] = Gross toxicity in treated mice; assay type: in vivo; settings: 10 mg/kg body weight, three times weekly for three weeks
Experimental: All experiments involving mice were carried out according to protocols approved by the Institutional Animal Care and Use Committee at Cornell University. In all cases, 6-8 week old female NOD.Cg-Prkdcscid Il2rg^tm1Wjl/SzJ (NSG) mice (The Jackson Laboratory) were used. For xenograft experiments, a suspension of MDA-MB-453 breast cancer cells (or derivative cell lines stably expressing shRNAs) was mixed 1:1 with Matrigel Matrix (BD Biosciences) to give a final concentration of 3×10^6 cells per 100 μl, and 3×10^6 cells were immediately injected into each of the two flanks of 6-8 week old female NOD.Cg-Prkdc^scid Il2rg^tm1Wjl/SzJ (NSG) mice (n=3 mice per condition). Tumor sizes were measured using calipers, and estimated volumes were calculated using the formula V=(π/6)×length×width^2, as described previously (Tomayko et al., “Determination of Subcutaneous Tumor Size in Athymic (Nude) Mice,” Cancer Chemother Pharmacol. 24:148-154 (1989), which is hereby incorporated by reference in its entirety). For experiments using MDA-MB-453 cells stably expressing shRNAs, mice were sacrificed after 6 weeks. For 968 treatment studies, when tumors of 1-2 mm diameter were detected, the mice were randomly divided into two groups and intraperitoneal (IP) injections of 968 (10 mg/kg) solution or carrier solution were initiated and carried out three times weekly. […]

[3] = tested on: primary human mammary epithelial cells or fibroblasts; settings: Wang et al. 2010; cited from earlier work

Structure (SMILES) | inhibition of mitochondrial glutaminase activity ([1]; mitochondria from MDA-MB-453 cells) | inhibition of mitochondrial glutaminase activity ([1]; mitochondria from basal-subtype cells, 10 μM) | inhibition of mitochondrial glutaminase activity ([1]; mitochondria from luminal-subtype breast cancer cells) | toxicity [2] | growth of primary human mammary epithelial cells or fibroblasts [3]
O=C(Cc1ccccc1)Nc1nnc(CCSCCc2nnc(NC(=O)Cc3ccccc3)s2)s1 [BPTES] | no effect on activity | almost completely abolished | only partially inhibited | – | –
CN(C)c1ccc(C2Nc3ccc4ccccc4c3C3=C2C(=O)CC(C)(C)C3)cc1Br (centres unmarked) [Compound 968] | – | – | – | no gross evidence of toxicity | does not affect the growth
